Experimental data from patent US10179194B2, “Self-assembling peptides, peptidomimetics and peptidic conjugates as building blocks for biofabrication and printing” (Agency for Science, Technology and Research, priority 2013, dated 2019).
Peptide text beside a SMILES is read from it.

Columns and labels:
[1] = Self-assembly into aggregates and fibres in aqueous solution; format: physicochemical
Protocol: It is in some embodiments stable in aqueous solution at physiological conditions at ambient temperature for a period of time in the range from 1 day to 1 month or more. It may in some embodiments be stable in aqueous solution at physiological conditions at 90° C. for at least 1 hour, at least 2 hours, at least 3 hours, at least 4 hours or at least 5 hours An amphiphilic linear sequence of an amphiphilic peptide and/or peptoid including an amphiphilic linear peptide and/or peptoid, is capable of providing a self assembling α-helical fiber in aqueous solution under physiological conditions. The peptides/peptoids (typically 3-7-mers) in the L- or D-form can self assemble into supramolecular helical fibers which are organized into mesh-like structures mimicking biological substances such as collagen. It has previously been observed in X-ray crystallography that peptides of a length of 3 to 6 amino acids with repetitive alanine containing sequences and an acetylated […] take a helical conformation (Hatakeyama, Y, et al, Angew. Chem. Int. Ed. (2009) 8695-8698). Using peptides with an amphiphilic sequence, Ac-LD6 (L), the formation of aggregates has for example been observed already at 0.1 mg/ml. […]

guinea pigs = conditions: guinea pig, in vivo
[2] = Rheology of hydrogels, storage modulus G'; format: physicochemical
Protocol: Hydrogel samples were prepared in polydimethysiloxane moulds to obtain approximately 1 mm thick, 8 mm diameter discs. Dynamic strain and oscillatory frequency sweep experiments were carried out using the ARES-G2 Rheometer (TA Instruments, Piscataway, N.J.) with 8 mm titanium parallel plate geometry. The effects of varying several parameters on viscoelastic properties were studied as follows: • (1) Effect of varying concentration • (2) Effect of varying ionic strength of the solution (water vs saline vs PBS) • (3) Effect of varying pH Extrusion from 27 Gauge Needle
Rheology. Hydrogel samples were prepared in polydimethysiloxane moulds to obtain approximately 1 mm thick, 8 mm diameter discs. Dynamic strain and oscillatory frequency sweep experiments were carried out using the ARES-G2 Rheometer (TA Instruments, Piscataway, N.J.) with 8 mm titanium parallel plate geometry.

[3] = system: Chinese hamster ovary cells
[4] = system: New Zealand White rabbits; assay: Induced disc degeneration rabbit model (injectable therapy); format: in vivo
Protocol: FIG. 14 Evaluation of an injectable therapy in a rabbit model of degenerative disc disease. • (A) In this animal model, three lumbar intervertebral discs between the L3 and L6 vertebrae were punctured and their nucleus pulposus (NP) content aspirated. One month post-injury, two different treatments were injected into the NP space. The first treatment consists of 20 mg/mL of Ac-LIVAGK-NH2 (SEQ ID NO: 20) in PBS and gadolinium-DTPA (Gd-DTPA), a T1 MRI contrast agent. The second therapy consists of labeled donor rabbit NP cells encapsulated in 20 mg/mL of Ac-LIVAGK-NH2 (SEQ ID NO: 20) in PBS. The cells were labeled with FITC-conjugated iron oxide nanoparticles, which are T2 MRI contrastophores. […] In comparison, damaged untreated discs (D) are darker. […] The healthy disc was obtained from animal R245 (disc L2/L3), while the damaged disc was from R334 (L4/L5). The hydrogel treated disc imaged is L3/L4 from R245 and the cell therapy disc is L5/L6 of R328. At higher magnification, faintly fluorescent cells could be observed for discs that received cell therapy.
Induced disc degeneration rabbit model. […]
We designed an injectable therapy wherein our stimuli-responsive peptide Ac-LIVAGK-NH2 (SEQ ID NO: 20) was administered as a low viscosity solution which subsequently gels in situ. This therapy was evaluated in the induced disc degeneration rabbit model. […]

[5] = Stimuli-responsive gelation (minimum gelation concentration); format: physicochemical
Protocol: Ac-LIVAGK-NH2 (SEQ ID NO: 20) forms hydrogels at 20 mg/mL in water, 12 mg/mL in saline, 7.5 mg/mL in PBS, and 10 mg/mL in 10 mM NaOH.(B) The rigidity, as represented by the storage modulus (G′), of 20 mg/mL Ac-LIVAGK-NH2 hydrogels increases by one order of magnitude to 10 kPa when dissolved in normal saline(NaCl) as compared to water at 1 kPa. In phosphate buffered saline (PBS), G′ increases to 40 kPa. The stiffness also increases with peptide concentration. (C) The addition of sodium hydroxide (NaOH) enhances the rigidity of 20 mg/mL Ac-LIVAGK-NH2 (SEQ ID NO: 20) hydrogel from 1 kPa in water to 80 kPa. The rigidity increases with NaOH concentration. (D) Hydrogel droplet arrays of various dimensions can be obtained by mixing equivolumes of peptide solution (such as 10 mg/mL Ac-ILVAGK-NH2)(SEQ ID NO: 20) and PBS containing small molecules. Bioactive moieties can also be encapsulated; 1 μL droplets with green food colouring and 488 nm emission quantum dots, 2 μL droplets with red food colouring and 568 nm emission fluorophore conjugated to a secondary antibody, and 5 μL droplets with methylene blue and DAPI. (E) Hydrogel “noodles” are obtained by extruding 5 mg/mL Ac-ILVAGK-NH2 (SEQ ID NO: 20) solution through a 27 gauge needle into a concentrated salt bath.
• Peptide sequence: Ac-LIVAGD-COOH (SEQ ID NO: 17) • Molecular weight: 629.56 • (1) Temperature Sweep Study for Ac-LD6 (L) (SEQ ID NO : 17): • (a) The peptide mixture was then placed on rheometer lower plate. […]

For Ac-LIVAGD-OH [Ac-LD6 (L)], the “concentration at which formation of aggregates is observed” value [1] was 100 µg/mL and the “concentration at which peptide monomers align to form fibrous structures” value [1] was 1000 µg/mL.

For `CC[C@H](C)[C@H](NC(=O)[C@H](CC(C)C)NC(C)=O)C(=O)N[C@H](C(=O)N[C@@H](C)C(=O)NCC(=O)N[C@@H](CCCCN)C(N)=O)C(C)C` [Ac-LIVAGK-NH2] (Ac-LIVAGK-NH2), the “irritation or allergic reactions” value (guinea pigs) was “no irritation or allergic reactions”, the “reactions following subsequent immune challenge” value (guinea pigs) was “no reactions were observed” and the “systemic signs of toxicity” value (guinea pigs) was “did not exhibit any systemic signs of toxicity”. The “storage modulus (G′)” value ([2]; 20 mg/mL hydrogel in normal saline (NaCl)) was 10 kPa, the “storage modulus (G′)” value ([2]; 20 mg/mL hydrogel in phosphate buffered saline (PBS)) was 40 kPa and the “storage modulus (G′)” value ([2]; 20 mg/mL hydrogel in water) was 1 kPa. For the same molecule, the “storage modulus (G′)” value ([2]; 20 mg/mL hydrogel with addition of sodium hydroxide (NaOH)) was 80 kPa, the “Breaks SB (chromosome break)” value [3] was 2 and the “Breaks TB (chromatid break)” value [3] was 3. For the same molecule, the “Cells with aberrations (excluding gaps)” value [3] was 5, the “D (deletion)” value [3] was 0 and the “Gaps SG (chromosome gap)” value [3] was 2. For the same molecule, the “Inter Chromosomal Rearrangements CR (complex)” value [3] was 0, the “Inter Chromosomal Rearrangements DC (dicentric chromosome)” value [3] was 0 and the “Inter Chromosomal Rearrangements QR (quadradial)” value [3] was 0. For the same molecule, the “Inter Chromosomal Rearrangements R (ring)” value [3] was 0, the “Inter Chromosomal Rearrangements TR (triradial)” value [3] was 0 and the “Other aberrations DM (double minute)” value [3] was 0. For the same molecule, the “Other aberrations PV (pulverized)” value [3] was 0, the “mutagenicity (genotoxicity assays)” value [3] was “non-mutagenic” and the “immune response and tissue integration in histology sections of discs” value ([4]; 20 mg/mL in PBS with Gd-DTPA, or with labeled donor rabbit NP cells, two month post-treatment) was “integrated with the tissue and did not elicit an immune response”. The “time to gelation in situ” value ([4]; approximately 100 μL of 20 mg/mL peptide in PBS injected into a damaged NP) was ≤ 5 min, the “concentration at which hydrogels form” value ([5]; in 10 mM NaOH) was 10000 µg/mL and the “concentration at which hydrogels form” value ([5]; in PBS) was 7500 µg/mL. For the same molecule, the “concentration at which hydrogels form” value ([5]; in saline) was 12000 µg/mL and the “concentration at which hydrogels form” value ([5]; in water) was 20000 µg/mL.
